Values joined by “and” are separate entries in the source; they are usually repeats but may differ in a detail not shown here. Identical values can stand only once.
How the values were obtained:
Wnt transcription = experiment: WNT transcriptional reporter assay (Super(8×)TOPflash luciferase, HEK293T cells); assay type: cell-based; details: Homo sapiens, HEK-293T, Wnt3A-expressing vector, 20 hrs, relative to cells treated with DMSO alone, read-out: Wnt transcription potency
Text: Commercially available Super(8×)TOPflash vector driven by a (7×) TCF-firefly luciferase response element was transiently transfected into HEK293T cells, together with a TK-driven Renilla luciferase plasmid as an internal control to normalize the luminescence signal and a Wnt3A-expressing vector as the source of pathway activation. HEK293T cells were transfected with plasmids in DMEM plus 10% fetal bovine serum (FBS) for 8 hr, replated to 96-well plates in DMEM plus 10% FBS followed by treatment with compounds (1.6 nM to 5 M) (DMSO final concentration is 0.5%) for 20 hrs. Firefly and Renilla luciferase activities were measured and normalized by the Renilla luciferase values.

hMSCs = experiment: qPCR of target gene mRNA expression in hMSCs; assay type: cell-based, human
Description: qPCR detection of osteogenic markers: Cells were cultured with compound in the presence or absence of matrix as described above, but using 96-well plate format. Total RNA was extracted from cells (as above) using Trizol. cDNA was made using 750 ng of total RNA with Bio-Rad iscript kit and was diluted 20-fold before being used for qPCR. qPCR was conducted under the following conditions: 95° C., 2 min; 95° C., 10 s and 60° C., 45 s for 40 cycles; 60° C. for 71 cycles for melt curve. qPCR results were analyzed by the ΔΔCt method. 18s rRNA was used as an internal standard. This protocol was applied to hMSC and E15 cells.
Runx2 and BMP-2 are osteogenic markers; Axin2, Wnt3a, and Sox 9 are Wnt-inducible gene markers.
The assay for mRNA expression followed the same procedure with hMSCs as described for C2C12 cells (Example 7).

[1] = Prodrug hydrolysis in phosphate buffer determined by HPLC; assay type: physicochemical
Description: 3 provided 54 (described in Example 3) through prodrug hydrolysis as determined by HPLC.
Within 5 minutes, the hydrolysis of 3 produced compound 84 (described in Example 3) that is the mono hydrolysis product of the bis(amino acid) pro-drug 3. Within 15 minutes, compound 54 that is the fully hydrolyzed product from 3 (and 84) was prominent in solution. By 77 minutes, most of 3 was hydrolyzed while compound 84 and compound 54 persisted.

[2] = system: nude, immunodeficient Bg-Nu-XID female mice; experiment: Intramuscular osteoinduction: implants in biceps femoris of immunodeficient mice, histology after 8 weeks; assay type: in vivo
Description: Mice were divided into groups according to the experimental design: i) uninduced hMSCs that were treated with vehicle alone (i.e., 0.1% DMSO, final concentration) for 8 days then combined with TCP ceramic matrix, and ii) induced hMSCs that were treated with 3 (500 nM) in the presence of TCP ceramic matrix (5 mg/mL) for 8 days, and iii) TCP ceramic matrix (i.e. no cells) mock cultured for 8 days. The TCP ceramic matrix used was […] granules. […] MEM medium was added to existing PBS (pH 6.5) cell incubations to effect a 500 nM final concentration.
Isolation of Compound-Induced hMSCs and their Cryopreservation (FIG. 5, Steps 4-5). At the end of an 8-day cell culture period, the cells were washed three times with 1 ml PBS (50 mM, pH 7.4), and removed from the 6-well plate by trypsinization. For induced cells, the TCP granules that remained on the plate were retained. After three washes with PBS (50 mM, pH 7.4), cells were centrifuged at 1200× g for 3 min. The cell pellet was recombined with TCP ceramic taken from cell culture and the mixture was suspended in 1 mL freezing medium (MEM essential containing 20% FBS and 5% DMSO). Before cryopreservation of the cell-TCP mixture in liquid nitrogen, a 10 μl aliquot of each sample was taken and used to count the cells, or to confirm ALP functional activity and mRNA biomarker expression (i.e., Osteocalcin, Collagen I) in advance of implantation.
Preparation of Implants for Surgery (FIG. 5, Steps i and ii). On the day of surgery, implants comprised of either i) TCP ceramic matrix, ii) hMSCs (0.5 million) and 5 mg TCP ceramic matrix, or iii) compound-induced hMSCs (0.5 million) and 5 mg TCP ceramic matrix were prepared for transplantation. Frozen cell/ceramic suspensions were thawed and washed three times with PBS (50 mM, pH 7.4). All implants were combined with a bioadhesive just prior to implantation in mice. […]
Surgical Implantation of Compositions of the Invention (FIG. 5, Step iii). […] Mice were monitored throughout surgery and thereafter for maintenance of the surgical plane of anesthesia. […]

[3] = compound 500 nM, matrix 5 mg/mL, 3 days
[4] = implants of hMSCs induced 8 days with compound (500 nM) and TCP ceramic matrix, intramuscular, mice, 8 weeks

## CC(=O)N1c2ccc(C)cc2[C@H](Nc2ccc(C)cc2)C[C@@H]1C (relative stereo) [Compound 1, cis-1-acetyl-2,6-dimethyl-N-(p-methylphenyl)-1,2,3,4-tetrahydroquinolin-4-amine]
Wnt transcription
  EC50: < 15 nM

## CC(C)[C@H](N)C(=O)Oc1ccc(C=CC(=O)C=C(O)C=Cc2ccc(OC(=O)[C@@H](N)C(C)C)cc2)cc1 [Compound 3, (2S,2′S)—O,O′-(3-hydroxy-5-oxohepta-1,3,6-triene-1,7-diyl)bis(4,1-phenylene) bis(2-amino-3-methylbutanoate)]
hMSCs; 500 nM, 8 days
  Collagen 1 mRNA Fold-Change +/− SD, −matrix: 1.5 fold and 1.5 ± 0.2 fold
  Osteocalcin mRNA Fold-Change +/− SD, −matrix: 0.5 ± 0.1 fold
  VDR mRNA Fold-Change +/− SD, −matrix: 5.0 ± 0.5 fold
hMSCs; 500 nM, matrix 5 mg/mL, 3 days
  decrease of Sox9 expression: 40%
  decrease of Wnt repressor gene Axin2 expression: 80%
hMSCs; 500 nM, matrix 5 mg/mL, 8 days
  ALP mRNA Fold-Change +/− SD, +matrix: 55 fold and 55.0 ± 5.0 fold
  Collagen 1 mRNA Fold-Change +/− SD, +matrix: 1.8 ± 0.2 fold
  Osteocalcin mRNA Fold-Change +/− SD, +matrix: 5.2 ± 0.5 fold
  VDR mRNA Fold-Change +/− SD, +matrix: 45 fold and 45.0 ± 5.0 fold
hMSCs; compound 500 nM, 3 days
  BMP-2 mRNA fold-changes +/− SD, −matrix: 2.6 ± 0.2 fold
  Runx2 mRNA fold-changes +/− SD, −matrix: 101.3 ± 10.0 fold
  Sox9 mRNA fold-changes +/− SD, −matrix: 0.1 ± 0.01 fold
  Wnt3a mRNA fold-changes +/− SD, −matrix: 1 ± 0.1 fold
  Wnt5a mRNA fold-changes +/− SD, −matrix: 1 ± 0.1 fold
hMSCs; [3]
  Axin2 mRNA fold-changes +/− SD, +matrix: 0.2 ± 0.02 fold
  BMP-2 mRNA fold-changes +/− SD, +matrix: 7.5 fold and 7.5 ± 0.7 fold
  Runx2 mRNA fold-changes +/− SD, +matrix: 8.2 fold and 8.2 ± 0.8 fold
  Sox9 mRNA fold-changes +/− SD, +matrix: 0.6 ± 0.1 fold
  Wnt3a mRNA fold-changes +/− SD, +matrix: 82.4 fold and 82.4 ± 8.0 fold
  Wnt5a mRNA fold-changes +/− SD, +matrix: 6.3 fold and 6.3 ± 0.6 fold
[1]; pH 6.5 PBS
  persistence of compound: ≥ 77 min
  time until compound 54 (fully hydrolyzed product) was prominent in solution: ≤ 15 min
  time until hydrolysis produced compound 84 (mono hydrolysis product): ≤ 5 min
[1]; pH 7.5 buffer, versus pH 6.5 phosphate buffer (10 mM)
  persistence for over an hour in pH 7.5 buffer: not in pH 7.5 buffer
[2]; blinded observers, H&E sections, 8 weeks post-implantation
  osteoid score (0-4), median and 75th percentile, versus non-induced hMSCs on TCP matrix or TCP matrix alone: significantly (p<0.005) higher
[2]; [4]
  osteoid in the ROI relative to implants comprised of TCP alone (densitometry): 2.1 fold
  osteoid in the ROI relative to implants of non-induced hMSCs and TCP ceramic matrix (densitometry): 1.3 fold

Source: US11596716B2, “Compounds and matrices for use in bone growth and repair” (Human BioMolecular Research Institute, priority 2013, dated 2023)
